The results in this text go back to PubChem BioAssay AID1996.

In brackets after ≈: the same amount, converted by molar mass. Where only a bound is given, the exact number is not on record here.

For the series the following is noted: buffer; pH 7.4; 200.0 µM.
`O=C(CSc1ccc(Br)cc1)NC1CCCCCC1` returned a kinetic solubility of 3.4 µg/mL (≈ 9.93 µM).
The molecule `O=C(COc1ncnc2sccc12)NC1CCCCC1` came in with a solubility (kinetic) of over 43.7 µg/mL.
`N[C@@H](Cc1ccccc1)C(=O)N1C[C@H]2C[C@@H](C1)c1cccc(=O)n1C2` registered a kinetic solubility of 49 µg/mL (≈ 145 µM).
As for `O=C(NCCCNC(=O)c1ccccn1)c1ccc(F)cc1`, the figure is over 45.2 µg/mL.
As for `O=C1OCC2=C1C(c1ccc(F)cc1)CC(=O)N2c1ccccc1` (centres undefined), the figure is over 48.5 µg/mL; as for `COc1cc(C(=O)CSc2nccn2C)cc(OC)c1OC`, over 48.4 µg/mL.
As for `CCc1cc2c(=O)oc(-c3ccc(Br)cc3)nc2s1`, the figure is under 0.7 µg/mL; as for `CC(C)(C)c1ccccc1NC(=S)NC1CCCCC1`, 2.5 µg/mL (≈ 8.61 µM).
`CCCc1ccc(S(=O)(=O)NCC2CCCN2CC)cc1` (centres undefined) returned a kinetic solubility of 31 µg/mL (≈ 99.9 µM).
As for `CNC(=S)c1cc(C(C)(C)C)c(O)c(C(C)(C)C)c1`, the figure is 13.4 µg/mL (≈ 48 µM); as for `COc1ccc(C(=O)OCC(=O)NC(=O)Nc2ccccc2F)c(OC)c1`, 2.4 µg/mL (≈ 6.38 µM).
`O=C(CN1C(=O)NC2(CCCC2)C1=O)N1CCN(c2ccccc2O)CC1` gave a kinetic solubility of over 55.9 µg/mL.
For `COc1ccc(CCNS(=O)(=O)c2cn(C)nc2C)cc1` the value was over 46.4 µg/mL.
For `Cc1cc(C)nc(Nc2nc(-c3ccccc3)cs2)n1`, the solubility (kinetic) was under 0.2 µg/mL.
For `NS(=O)(=O)c1ccc(CCNC(=O)c2ccncc2)cc1`, the kinetic solubility is over 45.8 µg/mL.
As for `COc1ccc(CCNC(=O)COC(=O)CCC(=O)c2ccc(F)cc2)cc1`, the figure is 15.9 µg/mL (≈ 41 µM); as for `COc1ccc(C(=O)N=c2sc3ccccc3n2C)cc1`, under 0.3 µg/mL; as for `COc1ccc(C(=O)N2CCN(c3ccccc3OC)CC2)cc1`, over 49 µg/mL.
`CCOc1ccc(N2C(=O)C(Cl)=C(N3CCOCC3)C2=O)cc1` displayed a solubility (kinetic) of over 50.5 µg/mL.
Molecule `C=CCNS(=O)(=O)c1cc2c3c(c1)CCN3C(=O)CC2` yielded a kinetic solubility of over 43.9 µg/mL.
`O=C(c1nc2ccccc2[nH]1)c1ccccc1[N+](=O)[O-]` registered a solubility (kinetic) of 32.3 µg/mL (≈ 121 µM).
In the case of `NC(=O)C1CCN(CC(=O)NC(=O)NC2CCCC2)CC1`, the kinetic solubility is over 44.5 µg/mL.
For `COc1cc2c(cc1OC)/C(=C/C(=O)c1ccccc1F)NCC2` the value was 40.4 µg/mL (≈ 123 µM); for `CC(=O)NC(CC(=O)OCC(=O)Nc1cc(S(=O)(=O)N2CCCCC2)ccc1C)c1ccccc1` (centres undefined), over 75.2 µg/mL; for `c1ccc2c(c1)Cc1cc3ccccc3nc1-2`, 4.3 µg/mL (≈ 19.8 µM).
As for `COc1cccc(NC(=O)COc2ccccc2)c1`, the figure is over 38.6 µg/mL; as for `CCOC(=O)c1cc(COc2cc(Cl)cc(Cl)c2)on1`, under 0.7 µg/mL.
`N#Cc1ccccc1OCC(=O)OCC(=O)c1c[nH]c2ccccc12` returned a solubility (kinetic) of 6.4 µg/mL (≈ 19.1 µM).
For the molecule `CN(C(=O)CSc1cccc[n+]1[O-])C1CCCCC1`, the solubility (kinetic) was over 42.1 µg/mL.
As for `CCC1(C)Cc2ccccc2-c2nc(NCCCO)[nH]c(=O)c21` (centres undefined), the figure is 44 µg/mL (≈ 140 µM).
Consider `Cc1ccc(N2C(=O)C3CCCN3C2=S)c(C)c1` (centres undefined), for which the solubility (kinetic) is over 39.1 µg/mL.
For `COc1ccc(CNC(=O)c2c(O)c3ccccc3n(C)c2=O)cc1` the value was under 0.4 µg/mL; for `O=Cc1ccc(-n2cc(C=O)c3ccccc32)cc1`, 2.4 µg/mL (≈ 9.63 µM); for `COc1cc2c(cc1OC)C(C)N(C(=O)c1cc(Cl)nc(Cl)c1)CC2` (centres undefined), 17.1 µg/mL (≈ 44.9 µM).
In the case of `CC1CCCC(NC(=O)CCCn2c(=S)[nH]c3ccccc3c2=O)C1C` (centres undefined), the solubility (kinetic) is under 0.3 µg/mL.
As for `O=C(N/C(=C/c1ccccc1)C(=O)N1CCCCC1)c1ccco1`, the figure is over 48.7 µg/mL; as for `COc1ccc(NC(=O)NS(=O)(=O)c2ccc(C)cc2)cc1OC`, over 52.6 µg/mL; as for `Clc1ccccc1NC1=NCCCS1`, over 34 µg/mL.
As for `O=C(/C=C/c1cccc2ccccc12)N1CCOCC1`, the figure is over 40.1 µg/mL.
For `COc1cccc(CNC(=O)CNC(=O)c2cccs2)c1` the value was over 45.7 µg/mL; for `CCC(OC(=O)c1ccco1)C(=O)NC1CCCC1` (centres undefined), over 39.8 µg/mL.
For the molecule `Cc1cc(OCC(=O)Nc2ccncc2)ccc1[N+](=O)[O-]`, the kinetic solubility stood at 35.8 µg/mL (≈ 125 µM).
As for `NC(=O)C1Cc2ccccc2CN1S(=O)(=O)c1ccc(Cl)s1` (centres undefined), the figure is over 53.5 µg/mL.
For the molecule `O=C(c1cc2cc([N+](=O)[O-])ccc2s1)N1CCOCC1`, the kinetic solubility came to 16.2 µg/mL (≈ 55.4 µM).
`CCNc1nc(SC(C)C(=O)OC)nc(N(C)C)n1` (centres undefined) displayed a kinetic solubility of 30 µg/mL (≈ 105 µM). This solubility kinetic is about 1.9-fold higher than that of the molecule before.
For `O=S(=O)(c1ccccc1)c1nc(-c2ccccc2)oc1N1CCCC1` the value was 1.3 µg/mL (≈ 3.67 µM); for `C/C(=N/O)c1cccc(N2Cc3ccccc3C2)c1`, 22.2 µg/mL (≈ 88 µM).
As for `CC1CC(C)CN(C(=O)COC(=O)c2ccc3ncsc3c2)C1` (centres undefined), the kinetic solubility was 44.9 µg/mL (≈ 135 µM).
For `CCOC(=O)C(O)(c1ccc(N=c2ccccn2C)cc1)C(F)(F)F` (centres undefined), the kinetic solubility amounted to 46.3 µg/mL (≈ 131 µM).
For `Nc1ccncc1Cl` the value was 16.3 µg/mL (≈ 127 µM); for `CCCc1nnc(SCC(=O)NC2CCCCC2)n1CCOC`, over 51.1 µg/mL; for `O=C(CCN1C(=O)C2C3CCC(C3)C2C1=O)OCC(=O)c1ccc(Cl)cc1` (centres undefined), over 58.5 µg/mL.
For `CC(C)n1cc(/C=C2/NC(=O)NC2=O)c2ccccc21` the value was 0.7 µg/mL (≈ 2.6 µM).
Regarding `CC(C)(CNC(=O)Cc1ccc(Cl)cc1Cl)N1CCCCC1`, the solubility (kinetic) was over 51.5 µg/mL.
For `CN(CC(=O)NC1CCCCCC1)S(=O)(=O)c1cnc[nH]1` the value was over 47.2 µg/mL; for `CC1CCCC(C)N1S(=O)(=O)c1ccc(Cl)cc1` (centres undefined), 2.7 µg/mL (≈ 9.38 µM).
As for `S=C(c1c[nH]c2ccccc12)N1CCCC1`, the figure is over 34.5 µg/mL.
`O=C(NCC1CCCCC1)c1ccccc1[N+](=O)[O-]`: the kinetic solubility is over 39.3 µg/mL.
Molecule `O=S(=O)(Nc1ccc(N2CCCCC2)cc1)c1ccccc1F` registered a solubility (kinetic) of 12 µg/mL (≈ 35.9 µM).
As for `COc1ccc(CN2CCN(C(=O)CC(C)C)CC2)cc1`, the figure is 36.8 µg/mL (≈ 127 µM).
As for `O=C(COC(=O)c1ccc(O)cc1)NC1CCCC1`, the figure is over 39.5 µg/mL; as for `CC1CCN(C(=O)c2ccc(NC(=O)c3cccs3)cc2)CC1`, 44.7 µg/mL (≈ 136 µM).
As for `O=C1NC2(CCCCCC2)C(=O)N1Cc1ccc(Br)cc1`, the figure is 5.2 µg/mL (≈ 14.8 µM); as for `O=C(O)CN1C(=O)CC(c2ccccc2)CC1=O`, 25 µg/mL (≈ 101 µM).
With `CCOc1ccc(NC(=O)c2cc3ccccc3cc2OC)cc1`, the solubility (kinetic) is under 0.7 µg/mL.
Molecule `O=C(O)/C=C/C(=O)N1CCN(C(c2ccccc2)c2ccccc2)CC1` came in with a solubility (kinetic) of over 52.6 µg/mL.
On to `CN(CC(=O)Nc1cccc(F)c1)C(=O)c1ccncc1`, for which the kinetic solubility is over 43.1 µg/mL.
The molecule `CC(C(=O)NC1CCCCCC1)n1cc([N+](=O)[O-])cn1` (centres undefined) displayed a solubility (kinetic) of over 42 µg/mL.
As for `O=C(NC1CC1)C1CC(=O)N(c2cccc(Cl)c2Cl)C1` (centres undefined), the figure is over 47 µg/mL; as for `O=[N+]([O-])c1ccc(CS(=O)(=O)c2ccc(Cl)cc2)cc1`, 3.4 µg/mL (≈ 10.9 µM); as for `CC(=O)OCc1c(C)cc(C)c(/C=C(/C#N)C(N)=O)c1C`, over 42.9 µg/mL.
`CN(C(=O)COC(=O)c1ccc(Cl)c(S(=O)(=O)N2CCCCCC2)c1)C1CCS(=O)(=O)C1` (centres undefined) displayed a solubility (kinetic) of over 76.1 µg/mL.
For `OC1CSc2nc3ccccc3n2C1` (centres undefined) the value was 26.6 µg/mL (≈ 129 µM); for `Cc1ccccc1-n1ccnc1SCC(=O)NC1CCCC1`, over 47.3 µg/mL; for `CN(C)CCCN1C(=O)c2cc3ccccc3cc2C1=O`, 27.8 µg/mL (≈ 98.5 µM).
As for `CC(C)C(C)(C#N)NC(=O)CN1C(=O)NC2(CCCc3ccccc32)C1=O` (centres undefined), the figure is over 55.3 µg/mL.
As for `CN(C)CCNC(=O)Nc1ccc(F)cc1F`, the figure is over 36.5 µg/mL; as for `COC(=O)c1cc(NC(=O)c2c(C)noc2C)ccc1N1CCOCC1`, over 53.9 µg/mL.
Take `Clc1cc(-c2ccccc2)nc(-c2ccccc2)n1`: the kinetic solubility was under 0.3 µg/mL.
For `COc1ccc(NC(=O)c2cc(C)n(Cc3cccs3)c2C)cc1` the value was 1.3 µg/mL (≈ 3.82 µM); for `Cc1ccsc1C(=O)OCC(=O)NC1CCCC1`, over 40.1 µg/mL.
For `Cc1cc(NC(=O)COC(=O)c2ccccc2NCCO)no1` the value was over 47.9 µg/mL; for `Cc1ccc(OCC(=O)N(C)C2CCCCC2)c([N+](=O)[O-])n1`, over 46.1 µg/mL.
For `O=C(/C=C/c1cccs1)c1ccc(N2CCOCC2)cc1` the value was 4.8 µg/mL (≈ 16 µM); for `C=CCNC(=O)c1ccc(S(=O)(=O)CC)c(Cl)c1Cl`, over 48.3 µg/mL.
In the case of `Cc1nc2ncnn2c(C)c1Cc1cccc(C(F)(F)F)c1`, the solubility (kinetic) was over 45.9 µg/mL.
For `O=C(Cc1ccc(Cl)cc1)Nc1ccc2oc(=O)ccc2c1` the value was 2.9 µg/mL (≈ 9.24 µM).
For `CCN1C(=O)c2cccc3c(N)ccc(c23)C1=O` the value was 7.5 µg/mL (≈ 31.2 µM); for `Cc1ccc(C(=O)C2=C(O)C(=O)N(c3ncccn3)C2c2ccc(F)cc2)o1` (centres undefined), over 56.9 µg/mL; for `O=C(CC1Sc2ccccc2NC1=O)NCc1ccc(Cl)cc1` (centres undefined), under 0.4 µg/mL.
As for `Cc1onc(-c2ccccc2)c1C(=O)Nc1ccc(Cl)cn1`, the figure is 3.1 µg/mL (≈ 9.88 µM).
`CCOc1cccc(C(=O)Nc2ccc3c(c2)OCCO3)c1` showed a solubility (kinetic) of 27.3 µg/mL (≈ 91.2 µM).
The molecule `O=C(CN1C(=O)COc2ccccc21)N1CCOCC1` had a kinetic solubility of over 41.4 µg/mL.
As for `O=[N+]([O-])c1c(NCCO)cc(N2CCC3(CC2)OCCO3)c2nonc12`, the figure is over 54.8 µg/mL; as for `CC(C)Oc1ccc(C(CC(=O)N2CCOCC2)C(C)C)cc1` (centres undefined), over 47.9 µg/mL; as for `Cc1ccnc(NC(=O)CNC(=O)c2ccc3c(c2)OCO3)c1`, 22.3 µg/mL (≈ 71.2 µM).
The molecule `Cl.OC(CN1CCOCC1)c1csc2ccccc12` (centres undefined) had a solubility (kinetic) of 43.6 µg/mL.
For `CCOc1ccc(N2C(=O)CC(=O)NC2=O)cc1` the value was over 37.2 µg/mL.
For `CCOc1cc(C)c(S(=O)(=O)NCCCn2ccnc2)cc1C` the value was 41.2 µg/mL (≈ 122 µM).
As for `CN(C(=O)CSc1ccc2c(c1)OCCO2)c1ccccc1`, the figure is over 47.3 µg/mL; as for `CC(=O)c1cccc(NC(=O)CN2C(=O)NC(C)(C)C2=O)c1`, over 45.5 µg/mL.
As to `NC(=O)Cn1c(-c2nonc2N)nc2ccccc21`, the solubility (kinetic) was over 38.7 µg/mL.
For `O=C(Nc1ncccc1O)c1c(O)c2ccccc2[nH]c1=O` the value was 11.1 µg/mL (≈ 37.3 µM).
As for `CCC(CO)(C(=O)OC1CC2CCC(C1)N2C)c1ccccc1.Cl` (centres undefined), the figure is over 53.1 µg/mL.
